Laboratory results: ChEMBL document CHEMBL5523721, “Derivatives of D(-) glutamine-based MMP-2 inhibitors as an effective remedy for the management of chronic myeloid leukemia-Part-I: Synthesis, biological screening and in silico binding interaction analysis” (Eur J Med Chem, 2024)
Calls of active or inactive are those of the source. The calls are words filed in the database; no cut-off is given here.

Assays:
HT-1080 = test: Antiproliferative activity against human HT-1080 cells incubated for 72 hrs by MTT assay; settings: HT-1080, 72 h
[1] = Cytotoxicity against HEK293 cells incubated for 72 hrs by MTT assay; assay type: toxicity, cell-based; settings: human
K562 [2] = test: Antiproliferative activity against human K562 cells incubated for 72 hrs by PrestoBlue assay; settings: K562, 72 h
U-87 MG = test: Antiproliferative activity against human U-87 MG cells incubated for 72 hrs by MTT assay
A549 = test: cells; settings: Homo sapiens, A549, 72 h
Description: Antiproliferative activity against human A549 cells incubated for 72 hrs by MTT assay

K562 [3] = test: Induction of cell cycle arrest in human K562 cells assessed as cell population at sub-G1 phase at 4.919 uM incubated for 72 hrs by propidium iodide staining based flow cytometry analysis; assay type: functional
[4] = target: Macrophage metalloelastase (Homo sapiens, UniProt P39900); test: Inhibition of MMP-12 (unknown origin)
[5] = target: Matrix metalloproteinase-9 (Homo sapiens, UniProt P14780); test: Inhibition of MMP-9 (unknown origin) using chromogenic substrate incubated for 1 hr by microplate photometer analysis
K562 [6] = test: Induction of cell cycle arrest in human K562 cells assessed as cell population at G1 phase at 4.919 uM incubated for 72 hrs by propidium iodide staining based flow cytometry analysis (reference value: 44.4 +/- 1.5%); assay type: functional
[7] = Downregulation of MMP-2 expression in human K562 cells at 4.919 uM incubated for 48 hrs by flow cytometry analysis; assay type: functional
ACHN [8] = test: Antiangiogenic activity in human ACHN cells assessed as reduction in total tube length at 26.764 uM incubated for 72 hrs by microscopic analysis; assay type: functional, cell-based
K562 [9] = test: Induction of cell cycle arrest in human K562 cells assessed as cell population at G2/M phase at 4.919 uM incubated for 72 hrs by propidium iodide staining based flow cytometry analysis (reference value: 22.9 +/- 1.9%); assay type: functional
Neutrophil collagenase = Neutrophil collagenase (Homo sapiens, UniProt P22894); test: Inhibition of MMP-8 (unknown origin)
K562 [10] = test: Induction of cell cycle arrest in human K562 cells assessed as cell population at S phase at 4.919 uM incubated for 72 hrs by propidium iodide staining based flow cytometry analysis (reference value: 32.7 +/- 3.1%); assay type: functional
K562 [11] = test: Induction of apoptosis in human K562 cells assessed as total apoptotic cells at 4.919 uM incubated for 72 hrs by Annexin-V/PI staining based flow cytometry analysis (reference value: 2.6 +/- 1.1%); assay type: functional
ACHN [12] = test: Antiangiogenic activity in human ACHN cells assessed as reduction in mesh length at 26.764 uM incubated for 72 hrs by microscopic analysis; assay type: functional, cell-based
ACHN [13] = test: Antiangiogenic activity in human ACHN cells assessed as reduction in total segment length at 26.764 uM incubated for 72 hrs by microscopic analysis; assay type: functional, cell-based
ACHN [14] = test: Antiproliferative activity against human ACHN cells incubated for 72 hrs by MTT assay
[15] = target: 72 kDa type IV collagenase (Homo sapiens, UniProt P08253); test: Inhibition of MMP-2 (unknown origin) using chromogenic substrate incubated for 1 hr by microplate photometer analysis
ACHN [16] = test: Antiangiogenic activity in human ACHN cells assessed as reduction in branch length at 26.764 uM incubated for 72 hrs by microscopic analysis; assay type: functional, cell-based
K562 [17] = test: Antiproliferative activity against human K562 cells; assay type: functional, cell-based
K562 [18] = test: Induction of apoptosis in human K562 cells assessed as appearance of nucleus with fragmented DNA at 1.992 uM after 72 hrs by AO/EB staining based fluorescence microscopic analysis; assay type: functional, cell-based
K562 [19] = test: Induction of cell cycle arrest in human K562 cells assessed as cell population at S phase at 1.992 uM incubated for 72 hrs by propidium iodide staining based flow cytometry analysis (reference value: 32.7 +/- 3.1%); assay type: functional
K562 [20] = test: Induction of cell cycle arrest in human K562 cells assessed as cell population at G2/M phase at 1.992 uM incubated for 72 hrs by propidium iodide staining based flow cytometry analysis (reference value: 22.9 +/- 1.9%); assay type: functional
K562 [21] = test: Induction of cell cycle arrest in human K562 cells assessed as cell population at G1 phase at 1.992 uM incubated for 72 hrs by propidium iodide staining based flow cytometry analysis (reference value: 44.4 +/- 1.5%); assay type: functional
ACHN [22] = test: Antiangiogenic activity in human ACHN cells assessed as reduction in branch length at 17.157 uM incubated for 72 hrs by microscopic analysis; assay type: functional, cell-based
ACHN [23] = test: Antiangiogenic activity in human ACHN cells assessed as reduction in total segment length at 17.157 uM incubated for 72 hrs by microscopic analysis; assay type: functional, cell-based
K562 [24] = test: Induction of apoptosis in human K562 cells at 1.992 uM by AO/EB staining based fluorescence microscopic analysis; assay type: functional, cell-based; settings: time 24-72 hrs, TDE = time-dependent effect
[25] = Downregulation of MMP-2 expression in human K562 cells at 1.992 uM incubated for 48 hrs by flow cytometry analysis; assay type: functional
K562 [26] = test: Induction of apoptosis in human K562 cells assessed as increase in necrotic cells at 1.992 uM after 72 hrs by AO/EB staining based fluorescence microscopic analysis; assay type: functional, cell-based
K562 [27] = test: Induction of apoptosis in human K562 cells assessed as morphological changes at 1.992 uM after 72 hrs by AO/EB staining based fluorescence microscopic analysis; assay type: functional, cell-based
ACHN [28] = test: Antiangiogenic activity in human ACHN cells assessed as reduction in total tube length at 17.157 uM incubated for 72 hrs by microscopic analysis; assay type: functional, cell-based
K562 [29] = test: Induction of apoptosis in human K562 cells assessed as increase in late apoptotic dead cells at 1.992 uM after 72 hrs by AO/EB staining based fluorescence microscopic analysis; assay type: functional, cell-based
K562 [30] = test: Induction of apoptosis in human K562 cells assessed as total apoptotic cells at 1.992 uM incubated for 72 hrs by Annexin-V/PI staining based flow cytometry analysis (reference value: 2.6 +/- 1.1%); assay type: functional
K562 [31] = test: Induction of apoptosis in human K562 cells assessed as increase in early apoptotic cells at 1.992 uM after 24 hrs by AO/EB staining based fluorescence microscopic analysis; assay type: functional, cell-based
K562 [32] = test: Induction of apoptosis in human K562 cells assessed as increase in late apoptotic cells at 1.992 uM after 48 hrs by AO/EB staining based fluorescence microscopic analysis; assay type: functional, cell-based
K562 [33] = test: Induction of cell cycle arrest in human K562 cells assessed as cell population at sub-G1 phase at 1.992 uM incubated for 72 hrs by propidium iodide staining based flow cytometry analysis; assay type: functional
ACHN [34] = test: Antiangiogenic activity in human ACHN cells assessed as reduction in mesh length at 17.157 uM incubated for 72 hrs by microscopic analysis; assay type: functional, cell-based
K562 [35] = test: Induction of apoptosis in human K562 cells assessed as appearance of apoptotic cells at 1.992 uM after 24 to 72 hrs by AO/EB staining based fluorescence microscopic analysis; assay type: functional, cell-based; settings: time 24-72 hrs

Neutrophil collagenase, sequence (P22894 whole entry): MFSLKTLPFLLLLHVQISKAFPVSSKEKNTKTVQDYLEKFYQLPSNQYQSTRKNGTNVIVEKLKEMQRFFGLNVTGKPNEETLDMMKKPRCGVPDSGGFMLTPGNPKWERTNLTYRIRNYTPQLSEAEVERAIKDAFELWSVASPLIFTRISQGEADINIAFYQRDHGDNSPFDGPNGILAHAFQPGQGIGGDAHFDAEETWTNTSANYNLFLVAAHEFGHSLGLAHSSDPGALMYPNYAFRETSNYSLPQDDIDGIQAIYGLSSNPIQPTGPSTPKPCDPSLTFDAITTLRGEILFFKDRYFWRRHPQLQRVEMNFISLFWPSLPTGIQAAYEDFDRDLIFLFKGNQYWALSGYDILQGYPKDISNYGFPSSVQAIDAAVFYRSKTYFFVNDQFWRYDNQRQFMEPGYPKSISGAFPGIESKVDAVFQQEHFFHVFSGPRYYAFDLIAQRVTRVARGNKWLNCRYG
72 kDa type IV collagenase, sequence (P08253 whole entry): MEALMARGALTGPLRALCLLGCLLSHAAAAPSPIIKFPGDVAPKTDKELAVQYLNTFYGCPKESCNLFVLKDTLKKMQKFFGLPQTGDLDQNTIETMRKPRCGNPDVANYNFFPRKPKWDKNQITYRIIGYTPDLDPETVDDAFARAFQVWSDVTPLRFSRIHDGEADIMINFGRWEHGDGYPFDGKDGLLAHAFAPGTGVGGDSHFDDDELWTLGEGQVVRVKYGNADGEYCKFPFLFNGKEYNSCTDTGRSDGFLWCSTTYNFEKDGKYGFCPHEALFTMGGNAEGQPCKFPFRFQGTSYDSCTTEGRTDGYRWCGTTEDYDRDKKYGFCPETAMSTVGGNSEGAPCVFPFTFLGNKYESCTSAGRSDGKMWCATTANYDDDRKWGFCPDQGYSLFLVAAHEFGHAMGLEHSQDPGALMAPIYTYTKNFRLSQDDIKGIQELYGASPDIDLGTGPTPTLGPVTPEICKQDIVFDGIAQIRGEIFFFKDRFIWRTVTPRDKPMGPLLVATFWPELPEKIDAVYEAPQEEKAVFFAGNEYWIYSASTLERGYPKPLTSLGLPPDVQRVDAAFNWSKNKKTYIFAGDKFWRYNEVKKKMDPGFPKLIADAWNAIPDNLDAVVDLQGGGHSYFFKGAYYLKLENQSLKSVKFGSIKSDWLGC
Matrix metalloproteinase-9, sequence (P14780 whole entry): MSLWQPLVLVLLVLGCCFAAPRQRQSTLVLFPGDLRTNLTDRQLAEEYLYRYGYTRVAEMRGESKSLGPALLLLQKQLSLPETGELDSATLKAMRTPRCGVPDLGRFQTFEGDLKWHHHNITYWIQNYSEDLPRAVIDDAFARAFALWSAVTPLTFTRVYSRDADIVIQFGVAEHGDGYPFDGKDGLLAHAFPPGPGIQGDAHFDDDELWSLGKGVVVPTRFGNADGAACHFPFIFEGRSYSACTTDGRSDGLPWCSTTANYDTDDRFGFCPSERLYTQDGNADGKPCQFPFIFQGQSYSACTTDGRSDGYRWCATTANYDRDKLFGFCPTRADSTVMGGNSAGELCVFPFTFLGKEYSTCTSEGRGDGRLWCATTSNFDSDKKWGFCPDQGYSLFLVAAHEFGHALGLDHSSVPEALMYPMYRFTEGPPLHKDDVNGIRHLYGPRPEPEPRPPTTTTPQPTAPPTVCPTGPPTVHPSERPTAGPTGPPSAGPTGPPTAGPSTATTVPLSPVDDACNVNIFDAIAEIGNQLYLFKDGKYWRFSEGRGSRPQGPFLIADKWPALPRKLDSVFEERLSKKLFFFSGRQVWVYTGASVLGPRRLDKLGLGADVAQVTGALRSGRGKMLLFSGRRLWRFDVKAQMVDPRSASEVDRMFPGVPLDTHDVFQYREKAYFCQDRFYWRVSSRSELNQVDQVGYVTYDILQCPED
Macrophage metalloelastase, sequence (P39900 whole entry): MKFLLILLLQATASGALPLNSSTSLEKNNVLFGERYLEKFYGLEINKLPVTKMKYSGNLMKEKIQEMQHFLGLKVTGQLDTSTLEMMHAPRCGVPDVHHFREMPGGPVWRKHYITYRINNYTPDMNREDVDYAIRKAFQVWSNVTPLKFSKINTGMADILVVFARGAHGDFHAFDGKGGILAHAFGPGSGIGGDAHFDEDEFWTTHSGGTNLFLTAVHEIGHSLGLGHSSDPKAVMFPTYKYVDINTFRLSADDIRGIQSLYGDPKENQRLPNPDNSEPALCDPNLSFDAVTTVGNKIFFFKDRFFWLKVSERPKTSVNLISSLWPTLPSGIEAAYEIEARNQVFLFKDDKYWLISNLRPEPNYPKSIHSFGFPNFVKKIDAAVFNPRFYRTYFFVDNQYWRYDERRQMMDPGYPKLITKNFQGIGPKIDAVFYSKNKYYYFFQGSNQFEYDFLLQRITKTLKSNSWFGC

CCNC(=O)CC[C@@H](NS(=O)(=O)c1ccc(C)cc1)C(=O)O
IC50 (HT-1080): 16.5 µM
IC50 at 72 h [1]: 491 µM
IC50 (K562 [2]): 2.54 µM
IC50 (U-87 MG): 32.3 µM
IC50 (A549): 4.82 µM

NC(=O)CC[C@@H](NS(=O)(=O)c1ccc([N+](=O)[O-])cc1)C(=O)O
IC50 (HT-1080): 20.5 µM
IC50 at 72 h [1]: 173 µM
IC50 (K562 [2]): 9.73 µM
IC50 (U-87 MG): 26.4 µM
IC50 (A549): 8.99 µM

Cc1ccc(S(=O)(=O)N[C@H](CCC(=O)NC(C)C)C(=O)O)cc1
IC50 (HT-1080): 19.5 µM
IC50 at 72 h [1]: 347 µM
IC50 (K562 [2]): 4.24 µM
IC50 (U-87 MG): 20.3 µM
IC50 (A549): 17.3 µM

CC(C)NC(=O)CC[C@@H](NS(=O)(=O)c1ccc([N+](=O)[O-])cc1)C(=O)O
IC50 (HT-1080): 43.5 µM
IC50 at 72 h [1]: 271 µM
IC50 (K562 [2]): 11 µM
IC50 (U-87 MG): 37.5 µM
IC50 (A549): 10.6 µM

Cc1ccc(S(=O)(=O)N[C@H](CCC(N)=O)C(=O)O)cc1
IC50 (HT-1080): 18.3 µM
IC50 at 72 h [1]: 279 µM
IC50 (K562 [2]): 2.27 µM
IC50 (U-87 MG): 19.9 µM
IC50 (A549): 8.98 µM

CCNC(=O)CC[C@@H](NS(=O)(=O)c1ccc([N+](=O)[O-])cc1)C(=O)O
IC50 (HT-1080): 32.9 µM
IC50 at 72 h [1]: 145 µM
IC50 (K562 [2]): 7.76 µM
IC50 (U-87 MG): 16.2 µM
IC50 (A549): 12.2 µM

O=C(CC[C@@H](NS(=O)(=O)c1ccc([N+](=O)[O-])cc1)C(=O)O)NCc1ccccc1
Activity (K562 [3]): 4.6%
IC50 (HT-1080): 57.5 µM
IC50 [4]: 1.72 µM
IC50 [5]: 0.561 µM
Activity (K562 [6]): 49%
IC50 at 72 h [1]: 114 µM
Activity [7]: 19.6%
Activity (ACHN [8]): Active
Activity (K562 [9]): 17.4%
IC50 (K562 [2]): 4.91 µM
IC50 (Neutrophil collagenase): > 2 µM
Activity (K562 [10]): 33.6%
Activity (K562 [11]): 26.7%
Activity (ACHN [12]): Active
Activity (ACHN [13]): Active
IC50 (ACHN [14]): 26.8 µM
IC50 [15]: 0.273 µM
Activity (ACHN [16]): Active
IC50 (U-87 MG): 17.9 µM
IC50 (A549): 5.68 µM

CCCCCNC(=O)CC[C@@H](NS(=O)(=O)c1ccc(C)cc1)C(=O)O
IC50 (HT-1080): 27.6 µM
IC50 at 72 h [1]: 408 µM
IC50 (K562 [2]): 8.37 µM
IC50 (U-87 MG): 33.1 µM
IC50 (A549): 14.4 µM

CCCCCNC(=O)CC[C@@H](NS(=O)(=O)c1ccc([N+](=O)[O-])cc1)C(=O)O
IC50 (HT-1080): 20.7 µM
IC50 at 72 h [1]: 254 µM
IC50 (U-87 MG): 14.2 µM
IC50 (A549): 12.7 µM
IC50 (K562 [17]): 6.79 µM

CCCCNC(=O)CC[C@@H](NS(=O)(=O)c1ccc(C)cc1)C(=O)O
IC50 (HT-1080): 25.9 µM
IC50 at 72 h [1]: 391 µM
IC50 (K562 [2]): 3.75 µM
IC50 (U-87 MG): 16.8 µM
IC50 (A549): 19.5 µM

CC(C)CNC(=O)CC[C@@H](NS(=O)(=O)c1ccc([N+](=O)[O-])cc1)C(=O)O
IC50 (HT-1080): 16.2 µM
IC50 at 72 h [1]: 217 µM
IC50 (K562 [2]): 8.06 µM
IC50 (U-87 MG): 38.5 µM
IC50 (A549): 10.8 µM

CNC(=O)CC[C@@H](NS(=O)(=O)c1ccc([N+](=O)[O-])cc1)C(=O)O
IC50 (HT-1080): 24.4 µM
IC50 at 72 h [1]: 417 µM
IC50 (K562 [2]): 5.69 µM
IC50 (U-87 MG): 20.5 µM
IC50 (A549): 20.8 µM

Cc1ccc(S(=O)(=O)N[C@H](CCC(=O)NCc2ccccc2)C(=O)O)cc1
Activity (K562 [18]): inactive
IC50 (HT-1080): 19.7 µM
Activity (K562 [19]): 29.1%
IC50 [4]: 1.24 µM
Activity (K562 [20]): 14.7%
Activity (K562 [21]): 56.4%
Activity (ACHN [22]): Active
IC50 at 72 h [1]: 293 µM
Activity (ACHN [23]): Active
Activity (K562 [24]): Tde
Activity [25]: 20.1%
Activity (K562 [26]): Active
IC50 (K562 [2]): 1.99 µM
IC50 (Neutrophil collagenase): > 2 µM
Activity (K562 [27]): inactive
Activity (ACHN [28]): Active
Activity (K562 [29]): Active
Activity (K562 [30]): 39.7%
Activity (K562 [31]): Active
IC50 (ACHN [14]): 17.2 µM
Activity (K562 [32]): Active
Activity (K562 [33]): 12%
Activity (ACHN [34]): Active
IC50 (U-87 MG): 17.5 µM
IC50 (A549): 3.57 µM
Activity (K562 [35]): Active

Cc1ccc(S(=O)(=O)N[C@H](CCC(=O)NCC(C)C)C(=O)O)cc1
IC50 (HT-1080): 39.2 µM
IC50 at 72 h [1]: 645 µM
IC50 (K562 [2]): 2.35 µM
IC50 (Neutrophil collagenase): > 2 µM
IC50 (U-87 MG): 26.3 µM
IC50 (A549): 32.2 µM

CNC(=O)CC[C@@H](NS(=O)(=O)c1ccc(C)cc1)C(=O)O
IC50 (HT-1080): 25.2 µM
IC50 at 72 h [1]: 203 µM
IC50 (K562 [2]): 2.37 µM
IC50 (U-87 MG): 28.9 µM
IC50 (A549): 5.14 µM

COc1ccc(S(=O)(=O)N(CC(=O)NO)CC(C)C)cc1
IC50 (K562 [2]): 4.77 µM
IC50 (A549): 13.5 µM

CCCCNC(=O)CC[C@@H](NS(=O)(=O)c1ccc([N+](=O)[O-])cc1)C(=O)O
IC50 (HT-1080): 37.6 µM
IC50 [5]: 0.833 µM
IC50 at 72 h [1]: 368 µM
IC50 (Neutrophil collagenase): > 2 µM
IC50 [15]: 0.456 µM
IC50 (U-87 MG): 29 µM
IC50 (A549): 18.4 µM
IC50 (K562 [17]): 5.26 µM
